# Assay results reported in patent US5157052A, “Method for inhibiting IgE production” (priority 1990, dated 1992).
# What was measured:
# Thy 1 = assay: Splenocyte cell surface density/distribution (FACS): Thy 1; type: in vivo, mouse (Balb/c female)
# Method: Another (Group B) is injected with 20 μg (±) methyl 11α,16-dihydroxy-16-methyl-9-oxoprosta-5Z,13E-dien-1-oate as in Example 13. […] A 3 cm incision is made with a scalpel above the left hip, and the spleen is cut free from adjoining tissue and placed in a 100 mn plastic culture dish containing 10 ml PBS. The splenic cells are then made into a suspension, by rubbing the spleens between the rough, frosted ends of microscope slides repeatedly until the only remaining particulate matter is connective tissue. Cells are transferred to a 15 ml conical polystyrene tube and centrifuged in a centrifuge at 1200 rpm for 5 minutes. The supernatant is discarded by aspiration and the cell pellet is resuspended in 10 ml PBS, then centrifuged at 1200 rpm for 5 minutes. The supernatant is aspirated and the cell pellet is resuspended in 15 mM Tris, 140 mM Ammonium Chloride, to lyse red blood cells. After incubating at room temperature for 10 minutes the cell suspension is centrifuged at 1200 rpm for 10 minutes. The supernatant is discarded and the cell pellet is resuspended in 10 ml FACS Buffer (PBS containing 0.1% BSA and 0.1% Sodium Azide). The cell suspension is filtered through sterile glass wool plugged in the top of a pasteur pipet. Cells in the flow through are counted using a hemacytometer, then the cell suspension is centrifuged at 1200 rpm for 5 minutes. The supernatant is discarded and the cell pellet is resuspended in a volume of FACS Buffer that will yield 4×10^7 cells/ml. 10 μl (4×10^5 cells) is added to each well of a 96-well V-bottom plate. 25 μl of diluted monoclonal antibody directed against splenocyte cell surface proteins is added to each well: Major Histocompatability Complex (MHC) Class II (M5114, ATCC, Rockville Md.), MHC Class I (M1/42, ATCC), Anti-IgD (JA12.5, ATCC, Rockville, Md.), Thymocyte (Thy)-1 (JIJ, ATCC), B220 (14.8, ATCC), Kappa light chain (187, ATCC), IL-2 Receptor (7D4, ATCC), Lyt-1 (7.313, ATCC) and CD23 (biotinylated B3B4) and incubated on ice for 30 minutes. 100 μl 10% BSA 0.1% sodium azide is added to each well, then the plates are centrifuged at 1200 rpm for 10 minutes. The liquid is removed by aspiration and the cell pellets are resuspended in 100 μl FACS Buffer, and centrifuged at 1200 rpm for 5 minutes. […] Samples are transferred to individual tubes and 10,000 cells are analyzed. Using the Lysis software (Becton Dickinson, Mountain View, Calif.) the mean channel log fluorescence and percent positive cells are determined for the entire cell population. […]
# [1] = system: leukocyte membrane proteins; assay: Cell surface density or distribution of leukocyte membrane proteins, overall; type: in vivo, mouse (Balb/c female)
compound,measurement,setting,value
"CCCCC(C)(O)C/C=C/[C@H]1[C@H](O)CC(=O)[C@@H]1C/C=C\CCCC(=O)OC (mixture of isomers) [(±) methyl 11α,16-dihydroxy-16-methyl-9-oxoprosta-5Z,13E-dien-1-oate]",Percentage Positive Cells,"Thy 1; anti-IgD stimulated mice, 20 μg days 3 and 4, day 7 (PBS 14.3)",23 ± 10%
same,Mean Channel Log Fluorescence,"Thy 1; anti-IgD stimulated mice, 20 μg days 3 and 4, day 7 (PBS 97)",98 ± 0
same,Percentage Positive Cells,"Thy 1; unstimulated mice, 20 μg (PBS 9.3)",25.4 ± 3%
same,Mean Channel Log Fluorescence,"Thy 1; unstimulated mice, 20 μg (PBS 91)",92 ± 3
same,cell surface density and distribution,"[1]; anti-IgD stimulated mice, 20 μg days 3 and 4, day 7",identical cell surface density and distribution as the PBS treated group
same,cell surface density and distribution,"[1]; unstimulated mice, 20 μg",does not effect basal cell surface density or distribution of leukocyte membrane proteins
